Consider 4 molecules from patent US11583517B2, “Dual antagonist of PGD2/DPr2 and Thromboxane A2/TPr receptors and use for treatment of maladaptive immune response or thrombotic diathesis” (priority 2020, dated 2023).

Entries after “also recorded” stand apart in the source; their conditions may differ.

In test [1] the test system is primary pulmonary hypertension. The test can be described thus: patient with primary pulmonary hypertension. The format is in vivo, human. Conditions: person.
Text: Patient is diagnosed to have primary pulmonary hypertension.
Test [2] relates to viral infection. The test can be described thus: outbreak of viral infection in animal shelter facility. The format is in vivo, dogs and cats. To be noted: older animals. From the text: In a large animal shelter facility, there was an outbreak of viral infection largely affecting dogs and cats leading to deaths of many older animals, while the young animals survived.
Test [3] concerns Parkinson's disease. In words: patients with Parkinson's disease. The format is in vivo, human.
Test [4] relates to TAO. The test can be described thus: TAO patient and randomized control trial versus standard of care. Type of test: in vivo, human.
In test [5] the test system is dye nephrotoxicity and acute kidney injury. In words: ramatroban versus placebo prior to cardiac catheterization. The format is in vivo, human. Conditions: chronic kidney disease or heart failure, compared to placebo. From the text: Patients with chronic kidney disease or heart failure are randomized to receive ramatroban versus placebo prior to cardiac catheterization.

Test [6] relates to acute viral pneumonia. Type of test: in vivo, human.
Test [7] has as its system Alzheimer's disease. In words: AD patients randomized to four treatment groups. To be noted: long-term follow-up, compared with placebo. Type of test: in vivo, human.
In test [8] the test system is sickle cell disease. In words: SCD patient given COVID-19 vaccine with ramatroban. The format is in vivo, human. The method, then: A patient with sickle cell disease (SCD) has a past history of multiple vaso-occlusive crisis (VOC), acute chest syndrome (ACS) and ischemic cerebrovascular accidents. Patient is administered the AstraZeneca vaccine as prophylaxis against COVID-19. […] The same regimen is repeated at the time of the second dose of the vaccine. […] Other similar patients with SCD are found to experience high incidence of thrombotic events after COVID-19 vaccines.

Test [9] relates to TAO. In words: male smokers with TAO, ramatroban versus aspirin. To be noted: 12 months. The format is in vivo, human. From the text:
All patients can be prescribed standard therapies including pentoxifylline, iloprost, calcium antagonists, statins and low molecular weight heparin or oral anticoagulants. […] There is increase in blood flow in the dorsalis pedis and posterior tibial pulses arteries by doppler examination with a decrease in need for surgical procedures and amputations. Improvement was seen of active vascular lesions and pain symptoms.

Test [10] concerns COVID-19.
For test [11], the system named is Kawasaki like disease. To be noted: in vivo.
Test [12] has as its system asthma and allergic rhinitis. To be noted: added to conventional therapeutic regimen.
Test [13] has as its system silicosis mice. Conditions: silica-induced mouse model; cited from earlier work.
Test [14] relates to pneumoconiosis. In words: non-smoking stone crushers, chemoprophylaxis versus placebo. Conditions: 5 years.
Test [15] deals with Alzheimer's disease. To be noted: in vivo; cited from earlier work.
The mark [16] stands for this setting: Patient 6b, two months after start.
[17] abbreviates: retrospective analysis of COVID-19 patients.
Setting [18] is: retrospective analysis, ramatroban continued after discharge.

For the molecule `CCCc1nn(C)c2c(=O)[nH]c(-c3cc(S(=O)(=O)N4CCN(C)CC4)ccc3OCC)nc12` [sildenafil], in test [1], the clinical response entry was “no response”.
`O=C(O)CCn1c2c(c3ccccc31)C[C@H](NS(=O)(=O)c1ccc(F)cc1)CC2` [Ramatroban, 3-[(3R)-3-[(4-fluorophenyl)sulfonylamino]-1,2,3,4-tetrahydrocarbazol-9-yl]propanoic acid]: in [2], the infection severity entry was “marked decline” and the mortality result is listed as “marked decrease”. In test [3] (Patient 6a), the falls result is given as “stops falling” and the hallucinations result is recorded as “no longer experiences hallucinations”. Further, in test [3] (Patient 6a, at 4 months), the cognitive function entry was “significant improvement”. In addition, the sense of balance result in test [3] (Patient 6a, first week of treatment) is recorded as “subjective improvement”. Besides, in test [3] (setting [16]), the “cognitive ability and sociability” value is recorded as “marked improvements”; the hallucinations entry is on record as “reduction”; the physical functioning entry was “significant improvement”. Further, the “blood flow to the lower extremities” value in [4] (a) person) was “improvement”. Also, in test [4] (a), chronic smoker), the gangrenous toes entry is “partial resolution and healing”. The ischemic lesions entry in test [4] (b) randomized control trial, versus control group) is “resolution”. The blood flow entry in [4] (b) randomized control trial, with standard of care versus standard of care) is reported as “improvement”. Besides, the “dye nephrotoxicity and acute kidney injury” value in [5] was “significantly less”. In addition, in [6] (long term follow up), the lung compliance result is listed as “higher” and the lung fibrosis result is “significantly reduced”. In addition, in test [6] (versus placebo, with conventional therapy), the “resolution of pneumonia during the hospitalization” value is “significantly more rapid”. In test [7], the cognition and memory result is “improvement”. Moreover, the “antibody response to vaccine” value in test [8] (AstraZeneca vaccine, ramatroban 75 mg twice a day orally for one month) is listed as “robust”. Moreover, the “VOC, ACS, myocardial infarction or stroke” value in [8] (after vaccine, ramatroban 75 mg twice a day orally) is recorded as “no recrudescence or recurrence”. Further, in test [9], the “active vascular lesions and pain symptoms” value is “Improvement”; the “blood flow in the dorsalis pedis and posterior tibial arteries by doppler” value is “increase”; the “development of ulcers in the fingertips and toes, acrocyanosis, necrosis and loss of substance” value is listed as “significantly less”; the “need for surgical procedures and amputations” value is “decrease”. For the same molecule, in [10] (after 2 months), the “pulmonary function tests and DLCO” value is recorded as “normal”. Also, the “chest X-ray” value in test [10] (after 2 months, ramatroban continued as outpatient) was “complete resolution of the infiltrates with no evidence of any pulmonary fibrosis or scarring”. For the same molecule, in [10] (person, 75 mg twice a day), the “time to discharge home” value is given as 5 days. In addition, in test [10] (setting [17]), the lymphocyte counts result was “rapid improvement”, the “need for mechanical ventilation” value is “less”, the recovery time result is “shorter” and the thrombocytopenia result is “rapid recovery”. Also, in [10] (setting [18]), the “fibrosis and scarring in the lungs” value is reported as “reduced”; the lung function result is “better”. Further, in test [11], the laboratory parameters entry is “marked improved” and the “prophylaxis against Kawasaki like disease” value is on record as “remains healthy”. In [12], this molecule displayed an improvement in symptoms of 25%. In addition, in test [13], the “NLRP3 inflammasome, IL-1beta and caspase-1” value is on record as “inhibiting”; the “fibrosis and resulting cardiopulmonary dysfunction” value was “inhibiting; also recorded: significantly reducing”; the “infiltration with macrophages, lymphocytes and neutrophils” value was “reducing; also recorded: markedly inhibited”; the lung compliance result is given as “restoring”. Moreover, the silica-induced pulmonary inflammation result in test [13] is listed as “alleviated”. In [14], the lung compliance entry was “higher” and the lung fibrosis result is listed as “significantly reduced”.
Turning to “sodium oligomannate [sodium oligomannate (GV-971)]”, in [7], the cognition and memory result is recorded as “improvement”. For the same molecule, the “cognitive impairment in Alzheimer's disease” value in test [15] is listed as “improves”.
For `COc1ccccc1Oc1c(NS(=O)(=O)c2ccc(C(C)(C)C)cc2)nc(-c2ncccn2)nc1OCCO` [bosentan], the clinical response entry in [1] is “no response”.
